Measurements: paper PMC12339561, “Discovery of a selective dual-specificity tyrosine phosphorylation-regulated kinase 1B inhibitor with anti-adipogenic and anti-diabetic activities” (Frontiers in Pharmacology, 2025)

Target: T1, DYRK1B (dual-specificity tyrosine phosphorylation-regulated kinase 1B) (Homo sapiens, UniProt Q9Y463)
T1 construct: Human DYRK1B recombinant protein (#PV4649)
Assay: LanthaScreen Eu Kinase Binding Assay (TR-FRET displacement of kinase tracer […]), recombinant protein

T1 sequence (Q9Y463 whole entry): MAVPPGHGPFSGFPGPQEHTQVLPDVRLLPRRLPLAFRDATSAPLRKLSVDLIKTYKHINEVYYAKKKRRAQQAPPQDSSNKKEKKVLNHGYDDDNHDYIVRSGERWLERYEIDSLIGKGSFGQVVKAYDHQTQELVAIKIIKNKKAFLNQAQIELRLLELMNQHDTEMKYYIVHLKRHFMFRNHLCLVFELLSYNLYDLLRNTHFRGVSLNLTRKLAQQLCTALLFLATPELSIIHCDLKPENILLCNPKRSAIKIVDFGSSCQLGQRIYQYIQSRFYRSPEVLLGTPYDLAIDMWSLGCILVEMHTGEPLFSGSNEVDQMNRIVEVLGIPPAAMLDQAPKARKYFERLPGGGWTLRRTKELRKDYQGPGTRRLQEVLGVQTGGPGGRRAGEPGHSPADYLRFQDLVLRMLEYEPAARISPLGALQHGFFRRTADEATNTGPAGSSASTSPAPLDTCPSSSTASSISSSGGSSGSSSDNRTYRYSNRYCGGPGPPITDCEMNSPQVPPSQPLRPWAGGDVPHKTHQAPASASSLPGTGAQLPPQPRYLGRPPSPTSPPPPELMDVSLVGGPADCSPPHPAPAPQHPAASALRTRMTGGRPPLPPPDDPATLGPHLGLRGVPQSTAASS

`COc1ccc(-c2n[nH]c3ncc(-c4ccc(NC(C)=O)cc4)cc23)cc1` [KS-40070, N-(4-(3-(4-methoxyphenyl)-1H-pyrazolo [3,4-b]pyridin-5-yl)phenyl)acetamide] was tested, and the IC50 was 18 nM.
